Test results taken from patent US9238631B2, “Radiolabeled amino acids for diagnostic imaging” (PIRAMAL IMAGING SA, priority 2011, dated 2016).

What was measured:
[1] = test system: NCI-H460 (human NSCLC) cells; test: Cell uptake studies: 30 min uptake in H460 cells; format: cell-based; conditions: 0.25 MBq tracer, PBS 0.1% BSA
Description: For determination of the biological activity, the F18 labeled derivatives were used as tracers in cell uptake experiments. NCI-H460 (human NSCLC) cells, grown adherently in 48 well plates were used for these uptake-experiments. Approximately 100.000 cells were incubated with 0.25 MBq of the tracers for 30 min in PBS-buffer containing 0.1% BSA. After this time, the cell-bound radioactivity was determined using a γ-counter.

xCT (SLC7A11) = target: T1, xCT (SLC7A11) (Homo sapiens, UniProt Q9UPY5); test: Competition profile indicating uptake via xCT (SLC7A11); format: cell-based; conditions: co-incubation with 1 mM cold competitors, NCI-H460 cells
T1 construct: NCI-H460 tumor cells were co-incubated with the F-18 labeled tracer and several cold derivatives; endogenous in cells; host or cells: NCI-H460 tumor cells
T1 sequence (Q9UPY5 1-501): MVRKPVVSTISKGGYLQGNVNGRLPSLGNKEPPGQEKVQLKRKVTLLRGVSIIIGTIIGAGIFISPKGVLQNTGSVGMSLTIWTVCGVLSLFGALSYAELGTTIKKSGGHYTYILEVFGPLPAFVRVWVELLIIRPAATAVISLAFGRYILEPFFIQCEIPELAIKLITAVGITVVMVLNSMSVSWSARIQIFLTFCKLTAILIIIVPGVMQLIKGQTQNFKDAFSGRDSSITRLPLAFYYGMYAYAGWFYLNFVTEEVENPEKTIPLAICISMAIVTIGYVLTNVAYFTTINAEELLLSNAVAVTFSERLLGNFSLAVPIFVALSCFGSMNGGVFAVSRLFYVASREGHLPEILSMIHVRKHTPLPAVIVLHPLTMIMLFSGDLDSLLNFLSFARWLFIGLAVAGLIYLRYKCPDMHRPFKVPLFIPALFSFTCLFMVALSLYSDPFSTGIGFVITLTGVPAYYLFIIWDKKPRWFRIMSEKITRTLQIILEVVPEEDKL
T1 sequence (P08195 1-529 partner): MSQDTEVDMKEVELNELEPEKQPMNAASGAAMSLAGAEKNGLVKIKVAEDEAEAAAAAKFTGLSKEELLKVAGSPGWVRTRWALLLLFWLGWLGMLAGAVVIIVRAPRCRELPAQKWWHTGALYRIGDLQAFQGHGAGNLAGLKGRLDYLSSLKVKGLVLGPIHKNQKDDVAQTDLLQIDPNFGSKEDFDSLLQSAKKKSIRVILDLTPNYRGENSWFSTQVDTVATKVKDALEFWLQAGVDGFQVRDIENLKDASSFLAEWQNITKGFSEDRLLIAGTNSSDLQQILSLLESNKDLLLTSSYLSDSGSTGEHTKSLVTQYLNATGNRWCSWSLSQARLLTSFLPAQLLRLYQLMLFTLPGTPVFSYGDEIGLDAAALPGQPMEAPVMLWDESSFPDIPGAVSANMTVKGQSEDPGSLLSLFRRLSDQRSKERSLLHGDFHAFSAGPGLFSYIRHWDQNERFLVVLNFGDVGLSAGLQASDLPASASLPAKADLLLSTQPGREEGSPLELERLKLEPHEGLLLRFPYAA
Description: For determination of the responsible uptake mechanism, NCI-H460 tumor cells were co-incubated with the F-18 labeled tracer and several cold derivatives. These derivatives were used at a concentration of 1 mM, which is a large excess compared to the tracer. L-Glutamic acid, L-cystine, Carboxyphenylglycine (CPG) were used as competitors. In addition, also D-Glutamic acid, as well as L-aspartic acid and D-aspartic acid were used in this competition experiments. […] The same experiments were performed using [^18F]-1, [^18F]-4, [^18F]-9, [^18F]-8, [^18F]-25 and [^18F]-22.

NCI-H460 tumor [2] = test: PET imaging in NCI-H460 tumor bearing nude-mice; format: in vivo; conditions: PET at 60 min p.i., approx. 10 MBq
Description: a) [^18F]-1 was examined in NCI-H460 tumor bearing nude-mice using PET-imaging. Approx. 10 MBq of the tracer was injected into the animals and PET images were acquired at 60 min p.i. for 10 minutes. The H460-tumor was very well visible in the images with 3.6% ID/g as was determined by region of interest (ROI) analysis. Except of some uptake into the bladder due to the renal excretion, no uptake into non target tissues was observed.
b) [^18F]-12 was examined in the same animal model in mice as described above. Approx. 10 MBq was injected into the animals and PET images were obtained at 60 min p.i. for 10 min. The NCI-H460 tumor was very well visible and uptake of 2.7% ID/g into the tumor was calculated by ROI analysis. Except of some uptake into the gallbladder due to a partial hepatobiliary clearance of this derivative, the majority of activity is excreted renally, resulting in a strong PET signal from the bladder. No uptake in other non-target tissues was observed.

NCI-H460 tumor [3] = test: PET imaging in NCI-H460 tumor bearing nude-rats; format: in vivo
Outline: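 NCI-H460 cells were inoculated into the right flank of nude rats (RH-Foxn1 nu/nu) 8 to 10 days before imaging. PET images were acquired for 10 minutes at 60 min after injection of approximately 10 MBq tracer. Tumor, liver and kidney activity was derived by ROI analysis as %ID/g.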

N[C@@H](CCC(Cc1ccc(OCC[18F])cc1)C(=O)O)C(=O)O (stereo partly drawn) [[^18F]-12] [(2S)-2-Amino-5-[4-(2-[^18F]fluoroethoxy)benzyl]hexanedioic acid]
30 min uptake into H460 cells [%/100.000 cells] [1]: 10.5 ± 0.3 %/100.000 cells | competition profile / uptake mechanism of the tracer (xCT (SLC7A11)): specific uptake | H460 tumor uptake by ROI analysis (NCI-H460 tumor [2]): 2.7 % ID/g | Kidney (% ID/g at 1 h p.i.) (NCI-H460 tumor [3]; PET ROI analysis, 1 h p.i.): 0.9 % ID/g | Liver (% ID/g at 1 h p.i.) (NCI-H460 tumor [3]; PET ROI analysis, 1 h p.i.): 0.8 % ID/g | Tumor (Max % ID/g at 1 h p.i.) (NCI-H460 tumor [3]; PET ROI analysis, 1 h p.i.): 2.2 % ID/g | Tumor (Mean % ID/g at 1 h p.i.) (NCI-H460 tumor [3]; PET ROI analysis, 1 h p.i.): 0.9 % ID/g | H460 tumor uptake by ROI analysis (NCI-H460 tumor [3]; PET at 60 min after injection, approx. 10 MBq): 0.9 % ID/g
